# According to patent publication EP4588470A1, “PHARMACEUTICAL COMPOSITION COMPRISING CURCUMIN AND THE PREPARATION THEREOF” (priority 2024, dated 2025):
# How the values were obtained:
# [1] = test system: human circulating tumor cells; assay: drug sensitivity testing (CTC assay) on circulating tumor cells cultivated from patient blood; type: cell-based
# Excerpt: Determination of the effect of a pharmaceutical composition according to the present invention, on human circulating tumor cells in blood of nine patients suffering from different types of carcinoma as given in the following Table IV. The composition of the pharmaceutical composition is the same as used in Example 4.
# The cells from the collected blood were cultivated in a usual manner with an agent. The agent was either the pharmaceutical composition according to the present invention, or Resveratrol-ACTIF®, which is a combination preparation comprising resveratrol and at least one gingerol, that were added to the cell culture in a concentration of either 50% 100% and 200%.
# The same EDTA blood sample used for the verification of the CTC burden was used for drug sensitivity testing.
# After enrichment of mononuclear cells by density gradient centrifugation, CD45 depletion and erythrolysis the remaining cells were suspended in cell culture medium and incubated for 4 days with and without the tested compounds. Compounds were tested at three tissue culture doses (TCD), namely 50%, 100% and 200%.. […]
# The same experiment was performed with human circulating tumor cells, prepared from a tumor patient by using Resveratrol-ACTIF® and the pharmaceutical composition according to the present invention. […] The results vary from patient to patient and therefore have to be determined individually. […]
# [2] = several animal studies; cited from earlier work
# [3] = in buffer at pH 7; cited from earlier work
structure (smiles),measurement,setting,value
N.N.O=C([O-])C1(C(=O)[O-])CCC1.[Pt+2] [Carboplatin],response of tumor cell-inhibition,"[1]; patient 7, Figure 8, already with the 50% TCD (7,9 µg/ml)",maximal response has been reached
CCC(=O)C(CC(C)N(C)C)(c1ccccc1)c1ccccc1 (stereo not shown) [Methadon],antitumoral capacity among the tested chemotherapeutics,[1],highest antitumoral capacity
"COc1cc(C=CC(=O)CC(=O)C=Cc2ccc(O)c(OC)c2)ccc1O [curcumin, 1,7-bis(4-hydroxy-3-methoxyphenyl)-1,6-heptadiene-3,5-dione]",oral curcumin excreted in the faeces,[2],90%
same,solubility in aqueous solution,[3],less than 0.03 M
